Data published in the supplement of paper PMC10307832.

Key:
Assay in all cases: relative viability (nuclei count vs DMSO), 5 days (fraction); higher = more cells survive
[1] = compound: CN(C)C/C=C/C(=O)Nc1cc2c(Nc3ccc(F)c(Cl)c3)ncnc2cc1O[C@H]1CCOC1 [Afatinib] + O=C(CCCCCCC(=O)Nc1ccccc1)NO [Vorinostat] (partner 1 µM)
How it was run: (§1)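 Lung cancer cell lines were seeded in 1536-well plates and dosed by pin tool the next day, with either a single drug or a fixed anchor-drug dose combined with five library-drug doses (not always all listed) spaced in √10 steps. Five days later, one step fixed the cells and stained their nuclei (final 0.05% Triton X-100, 1% formaldehyde, 1 ug/ml Hoechst), and nuclei were counted on 4× images. Relative viability is the nuclei count in treated wells divided by the count in vehicle wells, and each value is the median of duplicate plates.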

[2] = compound: CN(C)C/C=C/C(=O)Nc1cc2c(Nc3ccc(F)c(Cl)c3)ncnc2cc1O[C@H]1CCOC1 [Afatinib] + C[C@]1(O)C[C@@H](c2nc(-c3ccc4ccc(-c5ccccc5)nc4c3)c3c(N)nccn32)C1 [Linsitinib] (partner 1 µM)
How it was run: as §1

[3] = compound: CN(C)C/C=C/C(=O)Nc1cc2c(Nc3ccc(F)c(Cl)c3)ncnc2cc1O[C@H]1CCOC1 [Afatinib] + CC1(C)CCC(c2ccc(Cl)cc2)=C(CN2CCN(c3ccc(C(=O)NS(=O)(=O)c4ccc(N[C@H](CCN5CCOCC5)CSc5ccccc5)c(S(=O)(=O)C(F)(F)F)c4)cc3)CC2)C1 [Navitoclax] (partner 0.5 µM)
How it was run: as §1

[4] = compound: CN(C)C/C=C/C(=O)Nc1cc2c(Nc3ccc(F)c(Cl)c3)ncnc2cc1O[C@H]1CCOC1 [Afatinib] + Cc1nc(NC(=O)N2CCC[C@H]2C(N)=O)sc1-c1ccnc(C(C)(C)C(F)(F)F)c1 [Alpelisib] (partner 2 µM)
How it was run: as §1

Row | Cell Line | relative viability ([1]; first compound 0.005 µM) | relative viability ([1]; first compound 0.01581 µM) | relative viability ([1]; first compound 0.05 µM) | relative viability ([1]; first compound 0.1581 µM) | relative viability ([1]; first compound 0.5 µM) | relative viability ([2]; first compound 0.005 µM) | relative viability ([2]; first compound 0.01581 µM) | relative viability ([2]; first compound 0.05 µM) | relative viability ([2]; first compound 0.1581 µM) | relative viability ([2]; first compound 0.5 µM) | relative viability ([3]; first compound 0.005 µM) | relative viability ([3]; first compound 0.01581 µM) | relative viability ([3]; first compound 0.05 µM) | relative viability ([3]; first compound 0.5 µM) | relative viability ([4]; first compound 0.005 µM) | relative viability ([4]; first compound 0.01581 µM) | relative viability ([4]; first compound 0.05 µM) | relative viability ([4]; first compound 0.5 µM) | relative viability ([3]; first compound 0.1581 µM) | relative viability ([4]; first compound 0.1581 µM)
1 | CAL-12T | 0.727 | 0.647 | 0.552 | 0.364 | 0.396 | 0.732 | 0.584 | 0.65 | 0.409 | 0.399 | 1.32 | 1.12 | 1.47 | 0.648 | 1.18 | 0.973 | 0.929 | 0.584 |  | 
2 | COR-L23 | 0.682 | 0.443 | 0.484 | 0.39 | 0.485 | 0.874 | 0.894 | 0.883 | 0.825 | 0.848 | 1.14 | 0.982 | 0.948 | 1.03 | 0.922 | 0.728 | 0.935 | 0.752 | 0.997 | 0.685
3 | NCI-H1755 | 0.9 | 0.935 | 0.789 | 0.79 | 0.727 | 0.979 | 0.992 | 0.997 | 0.938 | 0.995 | 0.957 | 0.981 | 1.08 | 0.987 | 0.492 | 0.89 | 0.882 | 0.929 | 0.995 | 0.888
4 | NCI-H1437 | 0.841 | 0.831 | 0.967 | 0.776 | 0.908 | 1.18 | 1.1 | 0.941 | 0.98 | 0.967 | 1.1 | 1.1 | 1.17 | 1.1 | 0.99 | 1.06 | 1.04 | 1.01 | 1.1 | 0.924
